Assay results as given in patent publication US10167262B2, “Herbicidal substituted 3-arylpyrazoles” (FMC CORPORATION, priority 2014, dated 2019).

Key:
Experiment in all cases: Test C pre-/postemergence greenhouse test, plant response rating 0-100
Assay type in all cases: in vivo
Details in all cases: Postemergence
soybean (Glycine max) = test system: soybean (Glycine max)
Outline: (§1)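 Visual rating vs controls after 13–15 d greenhouse; 0 = no effect, 100 = complete control. Pre: seeds in loam/sand, treated at planting. Post: seedlings 2–18 cm (1–4 leaf) in peat-based mix. Compounds in surfactant-containing non-phytotoxic solvent.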

[1] = test system: yellow nutsedge (Cyperus esculentus)
Outline: as §1

[2] = test system: large (Lg) crabgrass (Digitaria sanguinalis)
Outline: as §1

[3] = test system: velvetleaf (Abutilon theophrasti)
Outline: as §1

[4] = test system: winter wheat (Triticum aestivum)
Outline: as §1

[5] = test system: Italian ryegrass (Lolium multiflorum)
Outline: as §1

[6] = test system: giant foxtail (Setaria faberii)
Outline: as §1

[7] = test system: blackgrass (Alopecurus myosuroides)
Outline: as §1

[8] = test system: lambsquarters (Chenopodium album)
Outline: as §1

corn (Zea mays) = test system: corn (Zea mays)
Outline: as §1

[9] = test system: johnsongrass (Sorghum halepense)
Outline: as §1

[10] = test system: ragweed (common ragweed, Ambrosia elatior)
Outline: as §1

[11] = test system: pigweed (Amaranthus retroflexus)
Outline: as §1

Fc1ccccc1NN=C(c1ccccc1)c1c[nH]nc1-c1cc(Cl)cc(Cl)c1 [Compound 57]
Plant response rating (0 to 100), Soybean (soybean (Glycine max); 62 g ai/ha): 0 | Plant response rating (0 to 100), Soybean (soybean (Glycine max); 125 g ai/ha): 0 | Plant response rating, Soybean (soybean (Glycine max); 250 g ai/ha, scale 0 to 100): 0 | Plant response rating (0 to 100), Nutsedge, Yellow ([1]; 62 g ai/ha): 0 | Plant response rating (0 to 100), Nutsedge, Yellow ([1]; 125 g ai/ha): 0 | Plant response rating, Nutsedge, Yellow ([1]; 250 g ai/ha, scale 0 to 100): 5 | Plant response rating (0 to 100), Crabgrass, Large ([2]; 31 g ai/ha): 0 | Plant response rating (0 to 100), Crabgrass, Large ([2]; 62 g ai/ha): 0 | Plant response rating (0 to 100), Crabgrass, Large ([2]; 125 g ai/ha): 0 | Plant response rating, Crabgrass, Large ([2]; 250 g ai/ha, scale 0 to 100): 5 | Plant response rating (0 to 100), Velvetleaf ([3]; 62 g ai/ha): 70 | Plant response rating (0 to 100), Velvetleaf ([3]; 125 g ai/ha): 80 | Plant response rating, Velvetleaf ([3]; 250 g ai/ha, scale 0 to 100): 80 | Plant response rating (0 to 100), Wheat ([4]; 62 g ai/ha): 0 | Plant response rating (0 to 100), Wheat ([4]; 125 g ai/ha): 0 | Plant response rating, Wheat ([4]; 250 g ai/ha, scale 0 to 100): 0 | Plant response rating (0 to 100), Ryegrass, Italian ([5]; 62 g ai/ha): 0 | Plant response rating (0 to 100), Ryegrass, Italian ([5]; 125 g ai/ha): 0 | Plant response rating, Ryegrass, Italian ([5]; 250 g ai/ha, scale 0 to 100): 0 | Plant response rating (0 to 100), Foxtail, Giant ([6]; 31 g ai/ha): 0 | Plant response rating (0 to 100), Foxtail, Giant ([6]; 62 g ai/ha): 0 | Plant response rating (0 to 100), Foxtail, Giant ([6]; 125 g ai/ha): 0 | Plant response rating, Foxtail, Giant ([6]; 250 g ai/ha, scale 0 to 100): 5 | Plant response rating (0 to 100), Blackgrass ([7]; 31 g ai/ha): 0 | Plant response rating (0 to 100), Blackgrass ([7]; 62 g ai/ha): 0 | Plant response rating (0 to 100), Blackgrass ([7]; 125 g ai/ha): 0 | Plant response rating, Blackgrass ([7]; 250 g ai/ha, scale 0 to 100): 0 | Plant response rating (0 to 100), Lambsquarters ([8]; 62 g ai/ha): 60 | Plant response rating (0 to 100), Lambsquarters ([8]; 125 g ai/ha): 100 | Plant response rating (0 to 100), Corn (corn (Zea mays); 31 g ai/ha): 0 | Plant response rating (0 to 100), Corn (corn (Zea mays); 62 g ai/ha): 0 | Plant response rating (0 to 100), Corn (corn (Zea mays); 125 g ai/ha): 0 | Plant response rating, Corn (corn (Zea mays); 250 g ai/ha, scale 0 to 100): 0 | Plant response rating (0 to 100), Johnsongrass ([9]; 62 g ai/ha): 0 | Plant response rating (0 to 100), Johnsongrass ([9]; 125 g ai/ha): 0 | Plant response rating, Johnsongrass ([9]; 250 g ai/ha, scale 0 to 100): 0 | Plant response rating (0 to 100), Ragweed ([10]; 62 g ai/ha): 15 | Plant response rating (0 to 100), Ragweed ([10]; 125 g ai/ha): 65 | Plant response rating, Ragweed ([10]; 250 g ai/ha, scale 0 to 100): 70 | Plant response rating (0 to 100), Pigweed ([11]; 62 g ai/ha): 70 | Plant response rating, Pigweed ([11]; 250 g ai/ha, scale 0 to 100): 75
